Reference: US11000033B2, “Ketone or oxime compound, and herbicide” (NISSAN CHEMICAL CORPORATION, priority 2014, dated 2021)

Experiments:
Type in all cases: in vivo
[1] = test system: Scirpus juncoides; assay: Test Example 1: herbicidal activity, application before weed generation in submerged conditions (symbol B); settings: application herbicide amount 320 g/ha
Summary of the method: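 Ratings (5: ≥90%, near complete withering; 4: 70–<90%; 3: 40–<70%; 2: 20–<40%; 1: 5–<20%; 0: ≤5%) were assigned 3 weeks after the diluted emulsion was applied to the water surface of freshly sown, submerged pots.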

[2] = test system: transplanted rice plant; assay: Test Example 1: effect on crop, application before weed generation in submerged conditions (symbol a); settings: application herbicide amount 320 g/ha
Summary of the method: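 Alluvial soil pots flooded to 4 cm water, sown with Echinochloa oryzacola, Scirpus juncoides and Monochoria vaginalis, then transplanted with 2.5 leaf stage rice seedlings; pre-emergence application. Greenhouse 25° C. to 30° C.; scored 0–5 by herbicidal ratio 3 weeks after application.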

[3] = test system: Leptochloa chinensis; assay: Test Example 3: herbicidal effect by foliage application, Wagner pot (symbol D); settings: application herbicide amount 320 g/ha
Summary of the method: (§1)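 Plants sown in submerged alluvial soil (water depth 0.1–0.5 cm) in a 25–30 °C greenhouse and grown 14 days. An emulsion of the compound diluted in water to a set herbicide amount was sprayed uniformly on foliage. Effect on each plant scored 3 weeks after application.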

[4] = test system: Cyperus difformis; assay: Test Example 3: herbicidal effect by foliage application, Wagner pot (symbol E); settings: application herbicide amount 320 g/ha
Summary of the method: as §1

[5] = test system: Echinochloa crus-galli var. crus-galli; assay: Test Example 4: herbicidal effect by soil treatment (symbol H); settings: application herbicide amount 320 g/ha
Summary of the method: (§2)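 Seeds were sown in sterilized diluvial soil, covered with about 1.5 cm of soil, and the soil surface was sprayed with a water-diluted emulsion of the compound at a predetermined rate. Plants grew in a greenhouse at 25° C. to 30° C.; effects were scored visually 3 weeks after application.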

[6] = test system: Lolium multiflorum Lam.; assay: Test Example 4: herbicidal effect by soil treatment (symbol K); settings: application herbicide amount 320 g/ha
Summary of the method: as §2

[7] = test system: Amaranthus retroflexus; assay: Test Example 4: herbicidal effect by soil treatment (symbol N); settings: application herbicide amount 320 g/ha
Summary of the method: as §2

[8] = test system: Veronica persica; assay: Test Example 4: herbicidal effect by soil treatment (symbol R); settings: application herbicide amount 320 g/ha
Summary of the method: as §2

[9] = test system: corn; assay: Test Example 4: effect on crop by soil treatment (symbol c); settings: application herbicide amount 320 g/ha
Summary of the method: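 Seeds were sown in spots on sterilized diluvial soil in a plastic box and covered with about 1.5 cm of soil. Plants were then grown in a greenhouse at 25° C. to 30° C.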

[10] = test system: beet; assay: Test Example 4: effect on crop by soil treatment (symbol f); settings: application herbicide amount 320 g/ha
Summary of the method: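 Crop seeds, among them rice, wheat, beet and rapeseed, were sown in sterilized diluvial soil and covered with about 1.5 cm of soil. Boxes were kept in a greenhouse at 25° C. to 30° C. for plant growth.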

[11] = test system: Setaria viridis; assay: Test Example 5: herbicidal effect by foliage application, plastic box (symbol G); settings: 320 g/ha, 3 weeks after application
Summary of the method: (§3)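 Seeds were sown in sterilized diluvial soil, covered with about 1.5 cm of soil and grown 14 days in a greenhouse at 25° C. to 30° C. An emulsifiable formulation diluted in water to a set rate was sprayed over foliage, and injury was scored 3 weeks later.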

[12] = test system: Veronica persica; assay: Test Example 5: herbicidal effect by foliage application, plastic box (symbol R); settings: 320 g/ha, 3 weeks after application
Summary of the method: as §3

[13] = test system: soybean; assay: Test Example 5: effect on crop by foliage application, plastic box (symbol d); settings: 320 g/ha, 3 weeks after application
Summary of the method: (§4)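 Crop and weed seeds sown in spots in sterilized diluvial soil in plastic boxes and covered with about 1.5 cm soil. Plants raised in a greenhouse at 25° C. to 30° C. for foliar application.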

[14] = test system: wheat; assay: Test Example 5: effect on crop by foliage application, plastic box (symbol e); settings: 320 g/ha, 3 weeks after application
Summary of the method: as §4

SMILES | Herbicidal effect grade, B: Scirpus juncoides [1] | Effect grade on crop, a: transplanted rice plant [2] | herbicidal effect on D (Leptochloa chinensis), grade 0-5 [3] | herbicidal effect on E, grade 0-5 [4] | H (Echinochloa crus-galli var. crus-galli) herbicidal effect grade [5] | K (Lolium multiflorum Lam.) herbicidal effect grade [6] | N (Amaranthus retroflexus) herbicidal effect grade [7] | R (Veronica persica) herbicidal effect grade [8] | c (corn) effect on crop grade [9] | f (beet) effect on crop grade [10] | Herbicidal effect grade, H: Echinochloa crus-galli var. crus-galli [5] | Herbicidal effect grade, K: Lolium multiflorum Lam. [6] | Herbicidal effect grade, N: Amaranthus retroflexus [7] | Herbicidal effect grade, R: Veronica persica [8] | Effect on crop grade, c: corn [9] | Effect on crop grade, f: beet [10] | G: Setaria viridis, herbicidal effect (criteria of Test Example 1) [11] | R: Veronica persica, herbicidal effect (criteria of Test Example 1) [12] | d: soybean, effect on crop (criteria of Test Example 1) [13] | e: wheat, effect on crop (criteria of Test Example 1) [14] | other results
CON=C(C)CC1CC(OC(=O)COc2ccc(OC)cc2)=C(c2c(C)cc(C)cc2C)C1=O (stereo not shown) [1-069] | 4 (Herbicidal ratio of 70% or higher and lower than 90%) | 5 (Herbicidal ratio of 90% or more (almost completely withered)) | 5 (Herbicidal ratio of 90% or more (almost completely withered)) | 5 (Herbicidal ratio of 90% or more (almost completely withered)) | 5 (Herbicidal ratio of 90% or more (almost completely withered)) | 5 (Herbicidal ratio of 90% or more (almost completely withered)) | 4 (Herbicidal ratio of 70% or higher and lower than 90%) | 0 (Herbicidal ratio of 5% or lower (almost no effect)) | 5 (Herbicidal ratio of 90% or more (almost completely withered)) | 0 (Herbicidal ratio of 5% or lower (almost no effect)) |  |  |  |  |  |  |  |  |  |  | G: Setaria viridis, herbicidal effect grade [11]: 5 (Herbicidal ratio of 90% or more (almost completely withered)); R: Veronica persica, herbicidal effect grade [12]: 3 (Herbicidal ratio of 40% or higher and lower than 70%); d: soybean, effect on crop grade [13]: 4 (Herbicidal ratio of 70% or higher and lower than 90%); e: wheat, effect on crop grade [14]: 5 (Herbicidal ratio of 90% or more (almost completely withered))
CON=C(C)CC1CC(OC(=O)C(C)(C)Oc2ccccc2Cl)=C(c2c(C)cc(C)cc2C)C1=O (stereo not shown) [1-064] | 5 (Herbicidal ratio of 90% or more (almost completely withered)) | 4 (Herbicidal ratio of 70% or higher and lower than 90%) | 5 (Herbicidal ratio of 90% or more (almost completely withered)) | 5 (Herbicidal ratio of 90% or more (almost completely withered)) | 5 (Herbicidal ratio of 90% or more (almost completely withered)) | 5 (Herbicidal ratio of 90% or more (almost completely withered)) | 4 (Herbicidal ratio of 70% or higher and lower than 90%) | 0 (Herbicidal ratio of 5% or lower (almost no effect)) | 5 (Herbicidal ratio of 90% or more (almost completely withered)) | 0 (Herbicidal ratio of 5% or lower (almost no effect)) |  |  |  |  |  |  |  |  |  |  | G: Setaria viridis, herbicidal effect grade [11]: 5 (Herbicidal ratio of 90% or more (almost completely withered)); R: Veronica persica, herbicidal effect grade [12]: 3 (Herbicidal ratio of 40% or higher and lower than 70%); d: soybean, effect on crop grade [13]: 4 (Herbicidal ratio of 70% or higher and lower than 90%); e: wheat, effect on crop grade [14]: 5 (Herbicidal ratio of 90% or more (almost completely withered))
CC(=O)CC1CC(O)=C(c2c(C)cc(Oc3ccccc3)cc2C)C1=O (stereo not shown) [7-014] |  |  | 5 (Herbicidal ratio of 90% or more (almost completely withered)) | 2 (Herbicidal ratio of 20% or higher and lower than 40%) |  |  |  |  |  |  | 0 (Herbicidal ratio of 5% or lower (almost no effect)) | 3 (Herbicidal ratio of 40% or higher and lower than 70%) | 0 (Herbicidal ratio of 5% or lower (almost no effect)) | 0 (Herbicidal ratio of 5% or lower (almost no effect)) | 0 (Herbicidal ratio of 5% or lower (almost no effect)) | 0 (Herbicidal ratio of 5% or lower (almost no effect)) | 0 (Herbicidal ratio of 5% or lower (almost no effect)) | 0 (Herbicidal ratio of 5% or lower (almost no effect)) | 0 (Herbicidal ratio of 5% or lower (almost no effect)) | 0 (Herbicidal ratio of 5% or lower (almost no effect)) | 
CC(=O)CC1CC(O)=C(c2c(C)cc(-c3ncccn3)cc2C)C1=O (stereo not shown) [7-017] |  |  | 5 (Herbicidal ratio of 90% or more (almost completely withered)) | 4 (Herbicidal ratio of 70% or higher and lower than 90%) |  |  |  |  |  |  | 0 (Herbicidal ratio of 5% or lower (almost no effect)) | 0 (Herbicidal ratio of 5% or lower (almost no effect)) | 0 (Herbicidal ratio of 5% or lower (almost no effect)) | 0 (Herbicidal ratio of 5% or lower (almost no effect)) | 0 (Herbicidal ratio of 5% or lower (almost no effect)) | 0 (Herbicidal ratio of 5% or lower (almost no effect)) | 5 (Herbicidal ratio of 90% or more (almost completely withered)) | 0 (Herbicidal ratio of 5% or lower (almost no effect)) | 0 (Herbicidal ratio of 5% or lower (almost no effect)) | 0 (Herbicidal ratio of 5% or lower (almost no effect)) | 
CC(=O)CC1CC(O)=C(c2c(C)cc(-c3ccc(OC(F)(F)F)cc3)cc2C)C1=O (stereo not shown) [7-016] |  |  | 5 (Herbicidal ratio of 90% or more (almost completely withered)) | 0 (Herbicidal ratio of 5% or lower (almost no effect)) |  |  |  |  |  |  | 2 (Herbicidal ratio of 20% or higher and lower than 40%) | 0 (Herbicidal ratio of 5% or lower (almost no effect)) | 0 (Herbicidal ratio of 5% or lower (almost no effect)) | 0 (Herbicidal ratio of 5% or lower (almost no effect)) | 0 (Herbicidal ratio of 5% or lower (almost no effect)) | 0 (Herbicidal ratio of 5% or lower (almost no effect)) | 1 (Herbicidal ratio of 5% or higher and lower than 20%) | 0 (Herbicidal ratio of 5% or lower (almost no effect)) | 0 (Herbicidal ratio of 5% or lower (almost no effect)) | 0 (Herbicidal ratio of 5% or lower (almost no effect)) | 
